# In patent US20230295201A1 (Gilead Sciences, Inc., priority 2020, published 2023):
# Where two headings read alike, the source gives them in different places.
# How the values were obtained:
# Type in all cases: cell-based
# [1] = system: RSV strain A2; assay: RSV HEp-2 EC50 (infectious cytopathic cell protection assay); conditions: HEp-2 cells, RSV A2, 4 days, read-out: RSV HEp-2 EC50
# Procedure, shortened: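 HEp-2 cells mixed with titered RSV A2 at 50,000 cells/ml were added to plates holding 3-fold serial compound dilutions in DMSO, then incubated 4 days at 37° C. Cytoprotection was read as cell viability by CellTiter-Glo luminescence and converted to percent inhibition against 0% and 100% inhibition controls.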
# [2] = system: RSV A2; assay: RSV NHBE EC50 (RSV A2 antiviral assay in normal human bronchial epithelial cells); conditions: NHBE cells, RSV A2, 4 days, read-out: RSV NHBE EC50
# [3] = system: HRV16; assay: HRV16 HELA EC50 (cytopathic effect in H1-HeLa cells)
# Procedure, shortened: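 H1-HeLa cells seeded one day before, given 3-fold serial compound dilutions in triplicate just prior to infection with pre-titrated virus. Incubated 96 h at 33 °C/5% CO2; protection from cytopathic effect read as viability by CellTiter-Glo luminescence, normalised to infected untreated (0%) and uninfected (100%) controls.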
# [4] = system: DENV2 replicon; assay: DENV-2 Huh-7 Rep EC50 (replicon luminescence); conditions: Huh-7 replicon cells, 48 hours, read-out: DENV-2 Huh-7 Rep EC50
# Procedure, shortened: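 Huh-7 cells carrying a DENV2 replicon, 5,000 cells/well, were incubated with dosed compounds for 48 h at 37° C. EnduRen live-cell substrate was added 1.5 h before luminescence reading. EC50 came from dose-response against DMSO-only wells.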
# [5] = human respiratory syncytial virus, HEp-2, 96 h
# [6] = human respiratory syncytial virus, NHBE, 96 h
# [7] = 96 h, H1-HeLa cells, 33° C., read-out: HRV16 HELA EC50
# [8] = Dengue virus, DENV2, Huh-7, 48 h
# [9] = H1-HeLa cells, 96 h, 33° C.; read-out: HRV16 HELA EC50
SMILES,"EC50 [1, 5]","EC50 [2, 6]","EC50 [3, 7]","EC50 [4, 8]",EC50 [1],EC50 [2],"EC50 [3, 9]",EC50 [4]
"C[C@H](NP(=O)(OC[C@@]1(C#N)O[C@@H](c2ccc3c(N)ncnn23)[C@H](O)[C@@H]1O)Oc1ccccc1)C(=O)OC1CCOCC1 (stereo partly drawn) [Example 55, tetrahydro-2H-pyran-4-yl ((((2R,3S,4R,5S)-5-(4-aminopyrrolo[2,1-f][1,2,4]triazin-7-yl)-2-cyano-3,4-dihydroxytetrahydrofuran-2-yl)methoxy)(phenoxy)phosphoryl)-L-alaninate]",0.57 µM,4.29 µM,6.91 µM,> 50 µM,,,,
"CCC(CC)COC(=O)[C@H](CCCCNC(=O)OCc1ccccc1)NP(=O)(OC[C@@]1(C#N)O[C@@H](c2ccc3c(N)ncnn23)[C@H](O)[C@@H]1O)Oc1ccccc1 (stereo partly drawn) [Example 79, 2-ethylbutyl N2-((((2R,3S,4R,5S)-5-(4-aminopyrrolo[2,1-f][1,2,4]triazin-7-yl)-2-cyano-3,4-dihydroxytetrahydrofuran-2-yl)methoxy)(phenoxy)phosphoryl)-N6-((benzyloxy)carbonyl)-L-lysinate]",> 50 µM,> 5 µM,> 34.8 µM,40.2 µM,,,,
"CC(C)OC(=O)[C@H](Cc1ccccc1)NP(=O)(OC[C@@]1(C#N)O[C@@H](c2ccc3c(N)ncnn23)[C@H](O)[C@@H]1O)Oc1ccccc1 (stereo partly drawn) [Example 80, (2S)-isopropyl 2-(((((2R,3S,4R,5S)-5-(4-aminopyrrolo[2,1-f][1,2,4]triazin-7-yl)-2-cyano-3,4-dihydroxytetrahydrofuran-2-yl)methoxy)(phenoxy)phosphoryl)amino)-3-phenylpropanoate]",3.83 µM,4.7 µM,8.96 µM,> 50 µM,,,,
"CCC(CC)COC(=O)[C@H](Cc1ccccc1)NP(=O)(OC[C@@]1(C#N)O[C@@H](c2ccc3c(N)ncnn23)[C@H](O)[C@@H]1O)Oc1ccccc1 (stereo partly drawn) [Example 81, (2S)-2-ethylbutyl 2-(((((2R,3S,4R,5S)-5-(4-aminopyrrolo[2,1-f][1,2,4]triazin-7-yl)-2-cyano-3,4-dihydroxytetrahydrofuran-2-yl)methoxy)(phenoxy)phosphoryl)amino)-3-phenylpropanoate]",3.57 µM,2.65 µM,3.37 µM,38.9 µM,,,,
"CC(C)OC(=O)[C@@H](C)NP(=O)(OC[C@@]1(C#N)O[C@@H](c2ccc3c(N)ncnn23)[C@H](O)[C@@H]1O)Oc1ccccc1 (stereo partly drawn) [Example 86, (2R)-isopropyl 2-(((((2R,3S,4R,5S)-5-(4-aminopyrrolo[2,1-f][1,2,4]triazin-7-yl)-2-cyano-3,4-dihydroxytetrahydrofuran-2-yl)methoxy)(phenoxy)phosphoryl)amino)propanoate]",22.6 µM,> 5 µM,> 50 µM,> 50 µM,,,,
"CC[C@H](NP(=O)(OC[C@@]1(C#N)O[C@@H](c2ccc3c(N)ncnn23)[C@H](O)[C@@H]1O)Oc1ccccc1)C(=O)OC(C)C (stereo partly drawn) [Example 87, (2S)-isopropyl 2-(((((2R,3S,4R,5S)-5-(4-aminopyrrolo[2,1-f][1,2,4]triazin-7-yl)-2-cyano-3,4-dihydroxytetrahydrofuran-2-yl)methoxy)(phenoxy)phosphoryl)amino)butanoate]",1.34 µM,1.7 µM,6.71 µM,> 100 µM,,,,
"CCOC(=O)[C@H](CC)NP(=O)(OC[C@@]1(C#N)O[C@@H](c2ccc3c(N)ncnn23)[C@H](O)[C@@H]1O)Oc1ccccc1 (stereo partly drawn) [Example 97, (2S)-ethyl 2-(((((2R,3S,4R,5S)-5-(4-aminopyrrolo[2,1-f][1,2,4]triazin-7-yl)-2-cyano-3,4-dihydroxytetrahydrofuran-2-yl)methoxy)(phenoxy)phosphoryl)amino)butanoate]",0.537 µM,1.37 µM,4.42 µM,> 100 µM,,,,
"CC(C)[C@H](NP(=O)(OC[C@@]1(C#N)O[C@@H](c2ccc3c(N)ncnn23)[C@H](O)[C@@H]1O)Oc1ccccc1)C(=O)OC1CCCCC1 (stereo partly drawn) [Example 98, cyclohexyl ((((2R,3S,4R,5S)-5-(4-aminopyrrolo[2,1-f][1,2,4]triazin-7-yl)-2-cyano-3,4-dihydroxytetrahydrofuran-2-yl)methoxy)(phenoxy)phosphoryl)-L-valinate]",> 50 µM,> 5 µM,> 50 µM,> 50 µM,,,,
"CC(C)OC(=O)C[C@H](C)NP(=O)(OC[C@@]1(C#N)O[C@@H](c2ccc3c(N)ncnn23)[C@H](O)[C@@H]1O)Oc1ccccc1 (stereo partly drawn) [Example 99, (3S)-isopropyl 3-(((((2R,3S,4R,5S)-5-(4-aminopyrrolo[2,1-f][1,2,4]triazin-7-yl)-2-cyano-3,4-dihydroxytetrahydrofuran-2-yl)methoxy)(phenoxy)phosphoryl)amino)butanoate]",> 50 µM,> 5 µM,> 50 µM,> 50 µM,,,,
"CCC(CC)COC(=O)C1(NP(=O)(OC[C@@]2(C#N)O[C@@H](c3ccc4c(N)ncnn34)[C@H](O)[C@@H]2O)Oc2ccccc2)CCC1 (stereo partly drawn) [Example 100, 2-ethylbutyl 1-(((((2R,3S,4R,5S)-5-(4-aminopyrrolo[2,1-f][1,2,4]triazin-7-yl)-2-cyano-3,4-dihydroxytetrahydrofuran-2-yl)methoxy)(phenoxy)phosphoryl)amino)cyclobutanecarboxylate]",> 5.6 µM,3.6 µM,18 µM,> 50 µM,,,,
"C[C@@H](NP(=O)(OC[C@@]1(C#N)O[C@@H](c2ccc3c(N)ncnn23)[C@H](O)[C@@H]1O)Oc1ccccc1)C(=O)OCC(C)(C)C (stereo partly drawn) [Example 102, (2R)-neopentyl 2-(((((2R,3S,4R,5S)-5-(4-aminopyrrolo[2,1-f][1,2,4]triazin-7-yl)-2-cyano-3,4-dihydroxytetrahydrofuran-2-yl)methoxy)(phenoxy)phosphoryl)amino)propanoate]",9.95 µM,> 5 µM,16.7 µM,> 100 µM,,,,
CC[C@H](N[P@@](=O)(OC[C@@]1(C#N)O[C@@H](c2ccc3c(N)ncnn23)[C@H](O)[C@@H]1O)Oc1ccccc1)C(=O)OC1CCCCC1 [Example 104],,,,,0.79 µM,0.368 µM,1.8 µM,> 50 µM
CC[C@H](N[P@](=O)(OC[C@@]1(C#N)O[C@@H](c2ccc3c(N)ncnn23)[C@H](O)[C@@H]1O)Oc1ccccc1)C(=O)OC1CCCCC1 [Example 105],,,,,3.44 µM,2.02 µM,16.9 µM,> 50 µM
"N#C[C@]1(COP(=O)(NC2(C(=O)OC3CCCCC3)CCC2)Oc2ccccc2)O[C@@H](c2ccc3c(N)ncnn23)[C@H](O)[C@@H]1O (stereo partly drawn) [Example 107, cyclohexyl 1-(((((2R,3S,4R,5S)-5-(4-aminopyrrolo[2,1-f][1,2,4]triazin-7-yl)-2-cyano-3,4-dihydroxytetrahydrofuran-2-yl)methoxy)(phenoxy)phosphoryl)amino)cyclobutanecarboxylate]",> 14.2 µM,> 2.89 µM,> 35.7 µM,> 50 µM,,,,
"C[C@H](NP(=O)(OC[C@@]1(C#N)O[C@@H](c2ccc3c(N)ncnn23)[C@H](O)[C@@H]1O)Oc1ccccc1)C(=O)OC1CCCC1 (stereo partly drawn) [Example 108, (2S)-cyclopentyl 2-(((((2R,3S,4R,5S)-5-(4-aminopyrrolo[2,1-f][1,2,4]triazin-7-yl)-2-cyano-3,4-dihydroxytetrahydrofuran-2-yl)methoxy)(phenoxy)phosphoryl)amino)propanoate]",0.147 µM,0.239 µM,0.289 µM,40.8 µM,,,,
"CC[C@H](NP(=O)(OC[C@@]1(C#N)O[C@@H](c2ccc3c(N)ncnn23)[C@H](O)[C@@H]1O)Oc1ccccc1)C(=O)OC1CCCC1 (stereo partly drawn) [Example 109, (2S)-cyclopentyl 2-(((((2R,3S,4R,5S)-5-(4-aminopyrrolo[2,1-f][1,2,4]triazin-7-yl)-2-cyano-3,4-dihydroxytetrahydrofuran-2-yl)methoxy)(phenoxy)phosphoryl)amino)butanoate]",1.07 µM,0.452 µM,2.49 µM,> 50 µM,,,,
"CCC(CC)COC(=O)[C@@H](NP(=O)(OC[C@@]1(C#N)O[C@@H](c2ccc3c(N)ncnn23)[C@H](O)[C@@H]1O)Oc1ccccc1)C1CCCCC1 (stereo partly drawn) [Example 116, (2S)-2-ethylbutyl 2-(((((2R,3S,4R,5S)-5-(4-aminopyrrolo[2,1-f][1,2,4]triazin-7-yl)-2-cyano-3,4-dihydroxytetrahydrofuran-2-yl)methoxy)(phenoxy)phosphoryl)amino)-2-cyclohexylacetate]",> 100 µM,> 5 µM,> 31.9 µM,11.7 µM,,,,
"C[C@H](NP(=O)(OC[C@@]1(C#N)O[C@@H](c2ccc3c(N)ncnn23)[C@H](O)[C@@H]1O)Oc1ccccc1)C(=O)OC1CCC1 (stereo partly drawn) [Example 118, (2S)-cyclobutyl 2-(((((2R,3S,4R,5S)-5-(4-aminopyrrolo[2,1-f][1,2,4]triazin-7-yl)-2-cyano-3,4-dihydroxytetrahydrofuran-2-yl)methoxy)(phenoxy)phosphoryl)amino)propanoate]",0.214 µM,0.316 µM,0.424 µM,27 µM,,,,
